Experimental data reported in US9675543B2, “Method of improving aging appearance of skin by modulation of WIPI-1” (Avon Products, Inc., priority 2012, dated 2017).

System: WIPI-1
Experiment: WIPI-1 Screening, mRNA up-regulation in normal human keratinocytes (HEKa), Quantigene multiplex assay
Format: cell-based
Conditions: for HEKa Activity Level (percent up-regulation of WIPI-1 mRNA, scaled score): HEKa keratinocytes, 24 hours, vs vehicle control
Procedure: A variety of botanical extract and synthetic compounds were tested for the ability to up-regulate WIPI-1. Normal human dermal fibroblasts or keratinocytes were cultured in 96-well tissue culture treated plates, containing appropriate culture medium. Stock solutions of actives were made in an appropriate vehicle (water/Ethanol/DMSO). Cells were treated with test material or respective vehicle control diluted in growth medium for 24 hours in a humidified 37° C. incubator with 10% CO2. The concentrations of each extract are provided based on the dry weight of the given plant extract, by which is meant the weight of the extract after volatile extraction solvents have been removed. After incubation, growth medium from each plate was removed and 100 μL of lysis buffer was added to the wells and placed in 37° C. incubator with 10% CO2 for 30 minutes. At the end of incubation, the cells were collected in freezer plates and placed in −80° C. freezer, until analysis. Changes in mRNA after treatment were analysed using Panomics Quantigene multiplex assay that employs a branched DNA technology, following manufacturer's instructions (Affymetrix, CA). Percent increase (up-regulation) in mRNA for the WIPI-1 were calculated by comparing the test results to the control. The percent up-regulation is converted to a scaled score: 0: 0-20%; +: 21-40%; ++: 41-60%; +++: 61-80%; ++++: >80%.

CCOCCCNC(=O)c1coc(CN(CCCOCC)C(=O)c2ccc(Cl)cc2)n1 [Analog 1]
HEKa Activity Level (percent up-regulation of WIPI-1 mRNA, scaled score) (concentration 0.001%): + (+: 21-40%)
HEKa Activity Level (percent up-regulation of WIPI-1 mRNA, scaled score) (concentration 0.01%): + (+: 21-40%)
WIPI-1 within keratinocytes upregulated (in words) (keratinocytes): upregulated
